Several values for one entry are separate records, joined by “and”; a condition that tells them apart may be missing. Equal values may be shown once.
Columns and labels:
CD16a158V [1] = molecular target: T1, CD16a158V (Homo sapiens, UniProt P08637, F176V); assay: Biotinylated Ligand ELISA Assay; type: binding; settings: Biotinylated CD16a protein at 10 nM
Description: (§1) Coat ELISA plates (Costar 3922) using Neutravidin (Thermo 31000) at 5 μg/ml (100 μl/well) for 1 hour at 37° C. Plates were washed 4 times with PBST (PBS, 0.05% Tween 20-200 μl, 1 minute/wash) then blocked using 200 μl 5% bovine serum albumin (BSA, Heat Shock, Fraction V-American Bio AB01088-00100) in PBST for 2 hours at 25° C. with moderate shaking. BSA was removed and plates were washed. Biotinylated ligands diluted in PBSTB (PBST+0.1% BSA) were then added (100 μl/well) and incubated for 1 hour at 25° C. with gentle shaking. Ligands were removed and plates were washed. Any remaining unoccupied neutravidin binding sites were blocked by adding 100 μM Biotin (Fisher BP232-1) (100 μl/well) and incubated for 1 hour at 25° C. with gentle shaking. Plates were then washed. […] Protein was removed and plates were washed. Streptavidin-HRP (Invitrogen 434323) diluted 1:5000 in PBSTB was added (100 μl/well) and incubated for 1 hour at 25° C. with gentle shaking. Wash plates. Substrate (Super Signal ELISA Pico Chemiluminescent Substrate-Thermo 37069) was added (100 μl/well) and plates were incubated for 5 minutes at 25° C. with gentle shaking. Luminescence was then measured on the Biotek Synergy H1 microplate reader.

CD16a158F [2] = molecular target: T2, CD16a158F (Homo sapiens, UniProt P08637); assay: Biotin ELISA, interaction with various receptors (Example 55); type: binding; settings: three replicate values per compound
T2 sequence (P08637 17-208 limits assumed): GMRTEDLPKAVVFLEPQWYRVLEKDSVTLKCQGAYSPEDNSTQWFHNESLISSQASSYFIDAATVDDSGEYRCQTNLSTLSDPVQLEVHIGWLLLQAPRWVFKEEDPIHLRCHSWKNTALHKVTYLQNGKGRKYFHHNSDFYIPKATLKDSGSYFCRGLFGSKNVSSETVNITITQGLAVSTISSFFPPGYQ
Description: as §1
(§2) Using similar methods as Examples 47 or 53, interactions with a number of receptors were measured. In some embodiments, “stock” is antibody only, and “control” is an antibody that went through the same procedure except using DMSO only as opposed to a compound. When contacted with targeting moieties such as antibodies in the Examples, compounds, e.g., I-95, I-96, etc. can react through their reactive groups

CD16a158V [3] = molecular target: T1, CD16a158V; assay: as above; type: binding; settings: three replicate values per compound
Description: as §1, §2

CD32a H167 = molecular target: T3, CD32a H167 (Homo sapiens, UniProt P12318); assay: as above; type: binding; settings: three replicate values per compound
T3 sequence (P12318 36-218 limits assumed): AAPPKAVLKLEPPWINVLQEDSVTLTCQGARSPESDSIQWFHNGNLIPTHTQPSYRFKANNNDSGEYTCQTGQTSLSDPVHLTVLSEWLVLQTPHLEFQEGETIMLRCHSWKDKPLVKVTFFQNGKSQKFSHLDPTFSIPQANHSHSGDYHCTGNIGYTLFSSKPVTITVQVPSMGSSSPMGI
Description: as §1, §2

CD32a-R167 = assay: as above; type: binding; settings: three replicate values per compound
Description: as §1, §2

CD32b = molecular target: T4, CD32b (Homo sapiens, UniProt P31994); assay: as above; type: binding; settings: three replicate values per compound
T4 sequence (P31994 43-310): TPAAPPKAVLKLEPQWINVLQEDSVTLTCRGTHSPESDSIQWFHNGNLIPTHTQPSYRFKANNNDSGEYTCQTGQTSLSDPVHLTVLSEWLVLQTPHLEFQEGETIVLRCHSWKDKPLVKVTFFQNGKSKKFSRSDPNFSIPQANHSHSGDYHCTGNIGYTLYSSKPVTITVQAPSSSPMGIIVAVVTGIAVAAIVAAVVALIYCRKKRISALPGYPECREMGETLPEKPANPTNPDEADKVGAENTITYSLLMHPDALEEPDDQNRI
Description: as §1, §2

CD3ed = CD3ed (Homo sapiens, UniProt P04234+P07766); assay: as above; type: binding; settings: three replicate values per compound
Chain of CD3ed (P07766 23-126 limits assumed): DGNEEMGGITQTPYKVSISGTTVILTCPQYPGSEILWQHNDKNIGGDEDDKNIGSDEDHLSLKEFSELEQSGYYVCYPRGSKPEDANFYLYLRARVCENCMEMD
Chain of CD3ed (P04234 22-105 limits assumed): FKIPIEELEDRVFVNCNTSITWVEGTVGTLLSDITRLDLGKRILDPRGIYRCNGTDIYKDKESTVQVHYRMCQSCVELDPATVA
Description: as §1, §2

CD64 = CD64 (Homo sapiens, UniProt P12314); assay: as above; type: binding; settings: three replicate values per compound
Chain of CD64 (P12314 16-374): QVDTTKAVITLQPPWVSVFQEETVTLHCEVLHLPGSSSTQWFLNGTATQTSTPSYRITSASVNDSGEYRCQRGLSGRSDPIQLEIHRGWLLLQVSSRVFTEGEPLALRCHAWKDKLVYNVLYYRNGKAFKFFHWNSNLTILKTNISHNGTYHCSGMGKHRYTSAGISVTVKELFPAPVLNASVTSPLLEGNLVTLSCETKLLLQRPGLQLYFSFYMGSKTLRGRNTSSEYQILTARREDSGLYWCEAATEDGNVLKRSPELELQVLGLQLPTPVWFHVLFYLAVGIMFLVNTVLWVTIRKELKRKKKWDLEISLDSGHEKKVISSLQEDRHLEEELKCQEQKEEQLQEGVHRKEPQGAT
Description: as §1, §2

[4] = Biotin ELISA, No Protein (Example 55); type: binding; settings: three replicate values per compound
Description: as §1, §2

CD16a158F [5] = molecular target: T2, CD16a158F; assay: Biotinylated Ligand ELISA Assay; type: binding; parameters: purchased Acro Biosystems CDA-H82E8; settings: Biotinylated CD16a protein at 10 nM
Description: as §1

primary monocytes = assay: ADCP assay using fresh primary monocytes; type: cell-based, human; settings: beads loaded with test compound at 50 uM; 37C for 18 hrs
Description: (§3) Biotinylated fluorescent beads (Invitrogen, cat #P35372) were thoroughly mixed by vortexing for 1 min. Ten microliters of supplied bead suspension per treatment type were dispensed in Eppendorf tubes, and washed with 1 ml PBS […], then re-suspended in 500 uL of 1% BSA in PBS. Test compounds were added to bead suspensions to a final concentration of 50 uM, and biotinylated human IgG whole molecule (Rockland 009-0602) final concentration of 20 ug/mL.
(§4) Tubes were incubated at room temperature for 1 hr on a rocking platform.
(§5) Following incubation, beads were pelleted in a microcentrifuge at 12,000 g for 5 minutes at room temperature. Supernatants were carefully aspirated and beads were washed 5 times by resuspending in 1 ml of PBS 1% BSA, and centrifuging as described above. Finally, beads were resuspended in 500 ul of PBS 1% BSA and used in ADCP assay.
PBMC, freshly isolated from whole blood (Bioreclamation IVT0) using Ficoll-Paque density centrifugation were resuspended in serum-free, supplemented RPMI at 2×10^6 cells/mL.
Ten milliliters of the resulting cell suspension was seeded into 75-cm^2 tissue culture flask (Denville Scientific TC9341) and incubated 2-3 hr at 37° C. 5% CO2 to allow cell adhesion. Following incubation, media was decanted and surface of the flask was carefully washed twice, each time with 10 ml serum-free, supplemented RPMI to remove any residual non-adherent cells. To remove adherent cells, 10 mL of ice-cold 2.5 mM EDTA/PBS solution was added for 10 min on ice. Cells were transferred to a 15-ml conical tube and centrifuge 10 min at 300×g, room temperature, to remove the EDTA/PBS solution. Monocytes were then resuspended in RPMI 10% FCS at 5×10^5 cells/mL to be used in ADCP assay. Monocyte purity was assessed by staining cells with antibodies to human CD3 FITC (Biolegend 300306), CD19 PeCy7 (Biolegend 302216), CD14 BV421 (BD Biosciences, 565283), and CD16 (Biolegend 302046).
(§6) Monocytes or THP-1 cells (TIB-202 ATCC) were seeded into 96 well round bottom 96 well plates at the density of 10^5 cells per well in 200 ul, and 10 uL of fluorescent bead suspension prepared as described above was added to each well. Well contents were mixed by pipetting up and down using a multichannel pipet, and plates were incubated at 37C for 18 hrs. After incubation, well contents were transferred into flat bottom black 96 well plates (Costar #3358) and centrifuged for 2 minutes at 300 g to allow for better visualization of the cells. Images were taken using Zoe fluorescent cell imager (Biorad).

[6] = test system: CD16a negative THP1 cells; assay: ADCP assay using THP-1 cells; type: cell-based; settings: beads loaded with test compound at 50 uM; 37C for 18 hrs
Description: as §3, §4, §5, §6

T1 sequence (P08637 17-208 F176V): as the sequence (P08637 17-208 limits assumed) above, with F160V counted along it

| Biotin ELISA Results CD16a-158F (CD16a158F [2]) | Biotin ELISA Results CD16a-158V (CD16a158V [3]) | Biotin ELISA Results CD32a-H167 (CD32a H167) | Biotin ELISA Results CD32a-R167 (CD32a-R167) | Biotin ELISA Results CD32b (CD32b) | Biotin ELISA Results CD3ed (CD3ed) | Biotin ELISA Results CD64 (CD64) | SMILES | Biotinylated Ligand ELISA-CD16a158V Binding (RLU) (CD16a158V [1]) | Biotin ELISA Results No Protein [4] | Biotinylated Ligand ELISA-CD16a158F Binding (RLU) (CD16a158F [5]) | ACDP (primary monocytes)-normalized phagocytosis score (primary monocytes) | ACDP (CD16a negative THP1 cells)-normalized phagocytosis score [6] |
| --- | --- | --- | --- | --- | --- | --- | --- | --- | --- | --- | --- | --- |
| 34842 and 7323* and 23569 | 3136 and 3515 and 1518 | 5263 and 6063 and 4354 | 11818 and 37679* and 11737 | 10786 and 29882* and 8282 | 7926 and 1921 and 46693* | 43288 and 127129* and 49818 | O=C(CCCC[C@@H]1SC[C@@H]2NC(=O)N[C@@H]21)NCCOCCOCCOCCOCCOCCOCCOCCOCCn1cc(-c2ccc(NC(=O)N3CCC(N4CCN(Cc5ccccc5)C4=O)CC3)cc2)nn1 [Compound I-15, N-{4-[1-(26-{5-[(3aS,4S,6aR)-2-oxo-hexahydro-1H-thieno[3,4-d]imidazol-4-yl]pentanamido}-3,6,9,12,15,18,21,24-octaoxahexacosan-1-yl)-1H-1,2,3-triazol-4-yl]phenyl}-4-(3-benzyl-2-oxoimidazolidin-1-yl)piperidine-1-carboxamide] | B (a relative luminescence value (RLU) of 10,000-100,000) | 3931 and 5958 and 23315* | B (a relative luminescence value (RLU) of 10,000-100,000) |  |  |
| 19818 and 20544 and 2349* | 2543 and 5076 and 2414 | 3600 and 3315 and 3632 | 8460 and 31058 and 13897 | 3985 and 5047 and 3438 | 3087 and 4575 and 2480 | 40426 and 53812 and 48052 | O=C(CCCC[C@@H]1SC[C@@H]2NC(=O)N[C@@H]21)NCCOCCOCCOCCOCCOCCOCCOCCOCCn1cc(-c2cccc(NC(=O)N3CCC4(CC3)NC(=O)N(Cc3ccccc3)C4=O)c2)nn1 [Compound I-16, N-{3-[1-(26-{5-[(3aS,4S,6aR)-2-oxo-hexahydro-1H-thieno[3,4-d]imidazol-4-yl]pentanamido}-3,6,9,12,15,18,21,24-octaoxahexacosan-1-yl)-1H-1,2,3-triazol-4-yl]phenyl}-3-benzyl-2,4-dioxo-1,3,8-triazaspiro[4.5]decane-8-carboxamide] | D (a relative luminescence value (RLU) of 1-1,000) | 4636 and 2801 and 5055 | D (a relative luminescence value (RLU) of 1-1,000) | B (a normalized phagocytosis score of 1.5-2.0) |  |
|  |  |  |  |  |  |  | O=C(CCCC[C@@H]1SC[C@@H]2NC(=O)N[C@@H]21)NCCOCCOCCOCCOCCOCCOCCOCCOCCn1cc(-c2ccc(NC(=O)N3CCC4(CC3)NC(=O)N(c3ccccc3)C4=O)cc2)nn1 [Compound I-18, N-{4-[1-(26-{5-[(3aS,4S,6aR)-2-oxo-hexahydro-1H-thieno[3,4-d]imidazol-4-yl]pentanamido}-3,6,9,12,15,18,21,24-octaoxahexacosan-1-yl)-1H-1,2,3-triazol-4-yl]phenyl}-2,4-dioxo-3-phenyl-1,3,8-triazaspiro[4.5]decane-8-carboxamide] | D (a relative luminescence value (RLU) of 1-1,000) |  | D (a relative luminescence value (RLU) of 1-1,000) |  | B (a normalized phagocytosis score of 1.5-2.0) |
| −1097 and −1078 and −689 | −544 and −988 and −964 | 276 and 696 and −362 | 2048 and −50 and 349 | 2072 and 737 and 1622 | 1852 and 1310 and 797 | 40706 and 42386 and 41814 | O=C(CCCC[C@@H]1SC[C@@H]2NC(=O)N[C@@H]21)NCCOCCOCCOCCOCCOCCOCCOCCOCCn1cc(-c2ccc(OCC(=O)N3CCC(N4CC(=O)N(c5ccccc5)C4=O)CC3)cc2)nn1 [Compound I-19, 5-[(3aS,4S,6aR)-2-oxo-hexahydro-1H-thieno[3,4-d]imidazol-4-yl]-N-{26-[4-(4-{2-[4-(2,4-dioxo-3-phenylimidazolidin-1-yl)piperidin-1-yl]-2-oxoethoxy}phenyl)-1H-1,2,3-triazol-1-yl]-3,6,9,12,15,18,21,24-octaoxahexacosan-1-yl}pentanamide] | D (a relative luminescence value (RLU) of 1-1,000) | 1266 and 122 and 3990 | D (a relative luminescence value (RLU) of 1-1,000) |  |  |
